{"source": "patent US20070231296A1", "about": "“Method of Combating Fruit Flies” (priority 2004, published 2007)", "key": {"Bactrocera tryoni": {"test_system": "Bactrocera tryoni", "assay": "Large field cage trial with a paper mâché block containing fipronil plus Cue-lure", "format": "in vivo", "settings": "field cage 4×4×2.5 m, single paper mâché block with 20 milligrams of fipronil plus Cue-lure per cage", "source_text": "In a large field cage (4×4×2.5 m) trial, a single block of paper mâché containing 20 milligrams of fipronil plus Cue-lure was used per cage.\nAfter 2 days of exposure, over 90% mortality of male and female Bactrocera tryoni was achieved, after 3 days even over 95% mortality of males and females.\nDead females were collected from the floor of the cage and dissected."}, "fruit flies": {"test_system": "fruit flies", "assay": "Contact of male fruit flies with AMULET parapheromone stations and transfer to females", "format": "in vivo", "settings": "AMULET station, 20 mg fipronil per station; depending on length of contact", "method": "AMULET™ parapheromone stations use fipronil at a very low concentration (20 mg per station) that has no repulsion to male flies landing on the device allowing them to freely imbibe from its surface and walk over it for long periods. Female fruit flies of the same species are not attracted by the pheromone and do no show any interest in the stations.\nThrough this contact they contaminate the integument of the female that subsequently dies the following day."}}}
{"smiles": "N#Cc1nn(-c2c(Cl)cc(C(F)(F)F)cc2Cl)c(N)c1[S+]([O-])C(F)(F)F", "note": "(stereo not drawn) [fipronil]", "values": [{"measurement": "mortality of male and female Bactrocera tryoni", "setting": "Bactrocera tryoni; after 2 days of exposure", "result": "over 90%"}, {"measurement": "mortality of males and females", "setting": "Bactrocera tryoni; after 3 days", "result": "over 95%"}, {"measurement": "time after contact until male fruit flies die", "setting": "fruit flies", "result": "3 to 48", "unit": "h"}]}
